In brackets after ≈: the same amount, converted by molar mass.
Tests used:
Pseudomonas aeruginosa [1] = assay: The compound was tested for minimum inhibitory concentration in Pseudomonas aeruginosa,799/61 permeability mutant; format: functional
Enterobacter cloacae [2] = assay: microbe, parasite or virus in culture
Description: Minimum inhibitory concentration in Enterobacter cloacae, P99+ constitutive depressed type 1 lactamase producer

Pseudomonas aeruginosa [3] = assay: The compound was tested for minimum inhibitory concentration in Pseudomonas aeruginosa,799WT parent organism; format: functional
Pseudomonas aeruginosa [4] = assay: microbe, parasite or virus in culture
Description: Minimum inhibitory concentration in Pseudomonas aeruginosa, 18SH constitutive depressed type 1 lactamase producer

Enterobacter cloacae [5] = assay: microbe, parasite or virus in culture; remark: listed apart in the source
Description: Minimum inhibitory concentration in Enterobacter cloacae, I+401029 inducible type 1 lactamase producer

Pseudomonas aeruginosa [6] = assay: microbe, parasite or virus in culture; remark: listed apart in the source
Description: Minimum inhibitory concentration in Pseudomonas aeruginosa, 18S inducible type 1 lactamase producer

Enterobacter cloacae [7] = assay: microbe, parasite or virus in culture; remark: listed apart in the source
Description: Minimum inhibitory concentration in Enterobacter cloacae, DR 401108 constitutive depressed type 1 lactamase producer

Providencia stuartii [8] = assay: microbe, parasite or virus in culture
Description: Minimum inhibitory concentration in Pseudomonas stuartii, DR 442049 constitutive depressed type 1 lactamase producer

Enterobacter cloacae [9] = assay: microbe, parasite or virus in culture; remark: listed apart in the source
Description: Minimum inhibitory concentration in Enterobacter cloacae, P99- inducible type 1 lactamase producer

Providencia stuartii [10] = assay: microbe, parasite or virus in culture; remark: listed apart in the source
Description: Minimum inhibitory concentration in Pseudomonas stuartii, I+442019 inducible type 1 lactamase producer

Pseudomonas aeruginosa [11] = assay: microbe, parasite or virus in culture; remark: listed apart in the source
Description: In vitro minimum inhibitory concentration against Pseudomonas aeruginosa (PU21).

Citrobacter freundii [12] = assay: microbe, parasite or virus in culture
Description: Minimum inhibitory concentration in Citrobacter freundii, I+382010 inducible type 1 lactamase producer

Pseudomonas aeruginosa [13] = assay: microbe, parasite or virus in culture; remark: listed apart in the source
Description: Minimum inhibitory concentration in Pseudomonas aeruginosa,799/61 permeability mutant

Citrobacter freundii [14] = assay: microbe, parasite or virus in culture; remark: listed apart in the source
Description: Minimum inhibitory concentration in Citrobacter freundii, DR 382031 constitutive depressed type 1

Pseudomonas aeruginosa [15] = assay: microbe, parasite or virus in culture; remark: listed apart in the source
Description: Minimum inhibitory concentration in Pseudomonas aeruginosa,799WT parent organism

Escherichia coli [16] = assay: microbe, parasite or virus in culture
Description: In vitro minimum inhibitory concentration against Escherichia coli (DC0 parent organism).

Escherichia coli [17] = assay: microbe, parasite or virus in culture; remark: listed apart in the source
Description: In vitro minimum inhibitory concentration against Escherichia coli (DC2 permeability mutant).

Staphylococcus aureus [18] = assay: The compound was tested for minimum inhibitory concentration in Staphylococcus aureus,147N penicillin sensitive Staphylococcus aureus; format: functional
Staphylococcus aureus [19] = assay: The compound was tested for minimum inhibitory concentration in Staphylococcus aureus Oxford penicillin sensitive Staphylococcus aureus; format: functional
Citrobacter freundii [20] = assay: The compound was tested for minimum inhibitory concentration in Citrobacter freundii, I+382010 inducible type 1 lactamase producer; format: functional
Enterobacter cloacae [21] = assay: The compound was tested for minimum inhibitory concentration in Enterobacter cloacae,P99- inducible type 1 lactamase producer; format: functional
Providencia stuartii [22] = assay: The compound was tested for minimum inhibitory concentration in Pseudomonas stuartii,I+442019 inducible type 1 lactamase producer; format: functional
Citrobacter freundii [23] = assay: The compound was tested for minimum inhibitory concentration in Citrobacter freundii, DR 382031 constitutive depressed type 1; format: functional
Pseudomonas aeruginosa [24] = assay: The compound was tested for minimum inhibitory concentration in Pseudomonas aeruginosa,18S inducible type 1 lactamase producer; format: functional
Enterobacter cloacae [25] = assay: The compound was tested for minimum inhibitory concentration in Enterobacter cloacae,I+401029 inducible type 1 lactamase producer; format: functional
Citrobacter freundii [26] = assay: The compound was tested for minimum inhibitory concentration in Citrobacter freundii,I+382010 inducible type 1 lactamase producer; format: functional
[27] = The compound was evaluated for area under the curve in marmosets; format: ADME; conditions: callithrix, in vivo
[28] = The half life period in marmosets; format: ADME; conditions: callithrix, in vivo

Description for physchem: The dissociation constant of compound was tested for beta-Lactamase stability

Row | Structure (SMILES) | MIC (Pseudomonas aeruginosa [1]) [µg/mL] | MIC (Enterobacter cloacae [2]) [µg/mL] | MIC (Pseudomonas aeruginosa [3]) [µg/mL] | MIC (Pseudomonas aeruginosa [4]) [µg/mL] | MIC (Enterobacter cloacae [5]) [µg/mL] | MIC (Pseudomonas aeruginosa [6]) [µg/mL] | MIC (Enterobacter cloacae [7]) [µg/mL] | MIC (Providencia stuartii [8]) [µg/mL] | MIC (Enterobacter cloacae [9]) [µg/mL] | MIC (Providencia stuartii [10]) [µg/mL] | MIC (Pseudomonas aeruginosa [11]) [µg/mL] | MIC (Citrobacter freundii [12]) [µg/mL] | MIC (Pseudomonas aeruginosa [13]) [µg/mL] | MIC (Citrobacter freundii [14]) [µg/mL] | MIC (Pseudomonas aeruginosa [15]) [µg/mL] | further results
1 | CC(C)(O/N=C(\C(=O)N[C@@H]1C(=O)N2C(C(=O)O)=C(CNC(=O)c3cc(O)c4cc(O)c(O)cc4n3)CSC12)c1csc(N)n1)C(=O)O (some centres not stated) | 0.06 (≈ 0.0873 µM) | 16 (≈ 23.3 µM) | 0.008 (≈ 0.0116 µM) | 0.125 (≈ 0.182 µM) | 0.5 (≈ 0.727 µM) | 0.008 (≈ 0.0116 µM) | 4 (≈ 5.82 µM) | 16 (≈ 23.3 µM) | 0.06 (≈ 0.0873 µM) | 0.008 (≈ 0.0116 µM) | 2 (≈ 2.91 µM) |  |  |  |  | 
2 | CC(C)(O/N=C(\C(=O)N[C@@H]1C(=O)N2C(C(=O)O)=C(CNC(=O)c3cnc4cc(O)c(O)cc4n3)CSC12)c1csc(N)n1)C(=O)O (some centres not stated) |  | 0.5 (≈ 0.743 µM) | 0.008 (≈ 0.0119 µM) | 0.008 (≈ 0.0119 µM) | 0.03 (≈ 0.0446 µM) | 0.008 (≈ 0.0119 µM) | 8 (≈ 11.9 µM) | 8 (≈ 11.9 µM) | 0.03 (≈ 0.0446 µM) | 0.25 (≈ 0.372 µM) |  | 8 (≈ 11.9 µM) | 0.008 (≈ 0.0119 µM) | 1 (≈ 1.49 µM) |  | 
3 | CC(C)(O/N=C(\C(=O)N[C@@H]1C(=O)N2C(C(=O)O)=C(CCc3ccc(O)c(O)c3)CSC12)c1csc(N)n1)C(=O)O (some centres not stated) |  | 32 (≈ 54.1 µM) |  | 0.125 (≈ 0.211 µM) | 0.5 (≈ 0.845 µM) | 0.03 (≈ 0.0507 µM) | 32 (≈ 54.1 µM) | 8 (≈ 13.5 µM) | 4 (≈ 6.76 µM) | 2 (≈ 3.38 µM) | 0.25 (≈ 0.423 µM) | 0.25 (≈ 0.423 µM) | 0.125 (≈ 0.211 µM) | 16 (≈ 27 µM) | 0.06 (≈ 0.101 µM) | MIC (Escherichia coli [16]): 0.125 µg/mL (≈ 0.211 µM); MIC (Escherichia coli [17]): 0.03 µg/mL (≈ 0.0507 µM); MIC (Staphylococcus aureus [18]): 16 µg/mL (≈ 27 µM); MIC (Staphylococcus aureus [19]): 8 µg/mL (≈ 13.5 µM)
4 | CC(C)(O/N=C(\C(=O)N[C@@H]1C(=O)N2C(C(=O)O)=C(CNC(=O)c3ccc4cc(O)c(O)cc4c3)CSC12)c1csc(N)n1)C(=O)O (some centres not stated) |  | 16 (≈ 23.9 µM) |  | 0.125 (≈ 0.186 µM) |  |  | > 128 | 8 (≈ 11.9 µM) |  |  |  |  | 0.008 (≈ 0.0119 µM) |  | 0.03 (≈ 0.0447 µM) | MIC (Citrobacter freundii [20]): 0.008 µg/mL (≈ 0.0119 µM); MIC (Enterobacter cloacae [21]): 0.125 µg/mL (≈ 0.186 µM); MIC (Providencia stuartii [22]): 0.25 µg/mL (≈ 0.373 µM); MIC (Citrobacter freundii [23]): 16 µg/mL (≈ 23.9 µM); MIC (Pseudomonas aeruginosa [24]): 0.008 µg/mL (≈ 0.0119 µM); MIC (Enterobacter cloacae [25]): 0.125 µg/mL (≈ 0.186 µM)
5 | CC(C)(O/N=C(\C(=O)N[C@@H]1C(=O)N2C(C(=O)O)=C(CNC(=O)c3cnc4cc(O)c(O)cc4c3O)CSC12)c1csc(N)n1)C(=O)O (some centres not stated) | 0.008 (≈ 0.0116 µM) | 0.06 (≈ 0.0873 µM) | 0.008 (≈ 0.0116 µM) | 0.008 (≈ 0.0116 µM) |  | 0.008 (≈ 0.0116 µM) | 1 (≈ 1.45 µM) | 2 (≈ 2.91 µM) | 0.03 (≈ 0.0436 µM) |  |  |  |  |  |  | MIC (Providencia stuartii [22]): 0.03 µg/mL (≈ 0.0436 µM); MIC (Citrobacter freundii [23]): 0.125 µg/mL (≈ 0.182 µM); MIC (Citrobacter freundii [26]): 0.008 µg/mL (≈ 0.0116 µM); MIC (Enterobacter cloacae [25]): 0.03 µg/mL (≈ 0.0436 µM)
6 | CC(C)(O/N=C(\C(=O)N[C@@H]1C(=O)N2C(C(=O)O)=C(CNS(=O)(=O)c3ccc(O)c(O)c3)CSC12)c1csc(N)n1)C(=O)O (some centres not stated) | 0.008 (≈ 0.0122 µM) | 2 (≈ 3.05 µM) |  | 0.125 (≈ 0.19 µM) | 0.03 (≈ 0.0457 µM) | 0.015 (≈ 0.0228 µM) | 2 (≈ 3.05 µM) | 8 (≈ 12.2 µM) | 0.125 (≈ 0.19 µM) | 0.5 (≈ 0.761 µM) |  | 0.015 (≈ 0.0228 µM) |  | 2 (≈ 3.05 µM) | 0.008 (≈ 0.0122 µM) | pKa (physchem): 8
7 | CC(C)(O/N=C(\C(=O)N[C@@H]1C(=O)N2C(C(=O)O)=C(CCOC(=O)c3cc(O)c(O)c(Br)c3)CSC12)c1csc(N)n1)C(=O)O (some centres not stated) |  | 2 (≈ 2.8 µM) |  | 0.03 (≈ 0.042 µM) | 0.03 (≈ 0.042 µM) | 0.008 (≈ 0.0112 µM) | > 128 | 2 (≈ 2.8 µM) | 0.03 (≈ 0.042 µM) | 0.03 (≈ 0.042 µM) | 0.008 (≈ 0.0112 µM) | 0.008 (≈ 0.0112 µM) | 0.008 (≈ 0.0112 µM) | 4 (≈ 5.6 µM) | 0.008 (≈ 0.0112 µM) | AUC [27]: 67.7 mg/h/L; pKa (physchem): 6.5; MIC (Escherichia coli [16]): 0.008 µg/mL (≈ 0.0112 µM); MIC (Escherichia coli [17]): 0.008 µg/mL (≈ 0.0112 µM); half-life [28]: 1.68 h; MIC (Staphylococcus aureus [18]): 8 µg/mL (≈ 11.2 µM); MIC (Staphylococcus aureus [19]): 8 µg/mL (≈ 11.2 µM)

— ChEMBL document CHEMBL1126299, “Synthesis and structure-activity relationships of cephalosporins with C-3' catechol-containing residues” (J Med Chem, 1992)
